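Test compounds were applied to cells in 96-well plates for 48 hours at 5 doses. Here, GI50 denotes the concentration required for 50% inhibition of growth. TGI: total growth inhibition.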

Among the test systems are EKVX NSCLC; HCC-2998 colon; HOP-92 NSCLC; K-562 leukemia; MALME-3M melanoma; OVCAR-4 ovarian; OVCAR-5 ovarian; OVCAR-8 ovarian; SF-539 CNS.
What all share (experiment): DTP human tumour cell line panel, 48 h

A word on the TGI: it is the concentration at which net growth stops. As for `CC(C)CCC[C@@H](C)C1CCC2[C@@H]3CC=C4C[C@@H](C(=O)NCCN(C)C)CC[C@]4(C)C3CC[C@@]21C` (stereo not given in full), the TGI with EKVX NSCLC is over 100 µM; in the test with HCC-2998 colon it was 65.6 µM; with HOP-92 NSCLC, 61.4 µM; in the test with K-562 leukemia, over 100 µM; in the test on MALME-3M melanoma it was over 100 µM; in the test on OVCAR-4 ovarian it was over 100 µM. The concentration for total growth inhibition (TGI) in the test on OVCAR-5 ovarian is over 100 µM; with OVCAR-8 ovarian, over 100 µM; in the test with SF-539 CNS, 46 µM.
For the compound `O=[N+]([O-])c1cccc(C2=NOC(C3CCCCC3)C2)c1` (stereo not given), the total growth inhibition concentration (TGI) in the test with HCC-2998 colon, in the test with HOP-92 NSCLC, in the test with K-562 leukemia, in the test on MALME-3M melanoma, in the test with OVCAR-4 ovarian and in the test with OVCAR-5 ovarian was over 100 µM each time. For the same compound, the TGI with OVCAR-8 ovarian and in the test with SF-539 CNS was over 100 µM throughout.
As to `COc1cc(/C=C2\[C@H]3c4c(c(OC)c(C)c(OC)c4OC)CC(C(=O)N2Cc2ccccc2)N3C)c(OC)c(C)c1OC`, the TGI in the test on EKVX NSCLC is 67.6 µM; with HCC-2998 colon, 62.8 µM; in the test on HOP-92 NSCLC, 49.9 µM; in the test on K-562 leukemia it was 62.1 µM; with MALME-3M melanoma, 47.3 µM; in the test on OVCAR-4 ovarian it was over 100 µM. In addition, the TGI in the test on OVCAR-5 ovarian was 71.8 µM; in the test on OVCAR-8 ovarian, over 100 µM; in the test with SF-539 CNS, 33.4 µM.
In the case of `Cc1[nH]c2ccccc2c1C1Cc2ccccc2N1C(=O)C#Cc1ccc([N+](=O)[O-])cc1` (stereo not given), the TGI in the test with EKVX NSCLC, in the test on HCC-2998 colon, with K-562 leukemia, in the test with MALME-3M melanoma, with OVCAR-4 ovarian and in the test on OVCAR-5 ovarian was over 100 µM each time. Besides, the TGI in the test on OVCAR-8 ovarian and in the test on SF-539 CNS was over 100 µM each time.
The GI50 is the concentration at which growth is held to half of that of the control. For the compound `c1coc(-c2c3ccc(=[N+]4CCCCC4)cc-3oc3cc(N4CCCCC4)ccc23)c1`, the 50% growth inhibitory concentration (GI50) was 0.0751 µM with HCC-2998 colon; 0.0502 µM with HOP-92 NSCLC; 0.0541 µM with K-562 leukemia; 0.0423 µM with MALME-3M melanoma; 0.0707 µM in the test on OVCAR-4 ovarian; 0.0946 µM in the test on OVCAR-5 ovarian. For the same compound, the GI50 in the test on OVCAR-8 ovarian was 0.0449 µM. In addition, the TGI in the test with HCC-2998 colon is 0.331 µM; in the test on HOP-92 NSCLC, 0.19 µM; in the test on K-562 leukemia, over 100 µM; with MALME-3M melanoma, 0.184 µM; in the test with OVCAR-4 ovarian, 0.883 µM; with OVCAR-5 ovarian, 1.12 µM. The compound further showed a TGI with OVCAR-8 ovarian of 1.1 µM.
With `Cc1cccc(C2=C/C(=C(\SS/C(C(=O)c3ccc(OCC(=O)O)c(Cl)c3Cl)=C3\C=C(c4cccc(C)c4)SS3)C(=O)c3ccc(OCC(=O)O)c(Cl)c3Cl)SS2)c1`, the TGI was over 100 µM in the test with EKVX NSCLC; over 100 µM in the test on HCC-2998 colon; 23.1 µM with HOP-92 NSCLC; 36.2 µM in the test with K-562 leukemia; 74.9 µM in the test on MALME-3M melanoma; over 70.2 µM in the test on OVCAR-4 ovarian. The figures for the TGI in the test on OVCAR-5 ovarian, in the test on OVCAR-8 ovarian and in the test with SF-539 CNS were over 86.2 µM, over 73.6 µM and 39.9 µM, respectively.
As to `O=C(N/C(=C\c1ccc([N+](=O)[O-])cc1)c1nc2ccccc2[nH]1)c1ccccc1`, the TGI with EKVX NSCLC, with HCC-2998 colon, with HOP-92 NSCLC, in the test on K-562 leukemia, in the test with MALME-3M melanoma and in the test on OVCAR-4 ovarian was over 100 µM throughout. For the same compound, the total growth inhibition concentration (TGI) with OVCAR-5 ovarian, in the test with OVCAR-8 ovarian and in the test on SF-539 CNS was over 100 µM each time.
In the case of `Cc1ccc(C)c(N2C/C(=N\NC(=O)CC#N)C(c3nc4ccccc4s3)C(=O)C2=O)c1` (stereo not given), the total growth inhibition concentration (TGI) with EKVX NSCLC, in the test with HCC-2998 colon, with HOP-92 NSCLC, with MALME-3M melanoma, with OVCAR-4 ovarian and with OVCAR-8 ovarian was over 100 µM each time.
`O=c1[nH]cnc(NC2C=C(CO)C(O)C2O)c1[N+](=O)[O-]` (stereo not given): the concentration for total growth inhibition (TGI) with EKVX NSCLC, with HCC-2998 colon, with HOP-92 NSCLC, with K-562 leukemia, in the test with MALME-3M melanoma and in the test with OVCAR-4 ovarian was over 100 µM throughout. Moreover, the concentration for total growth inhibition (TGI) in the test on OVCAR-5 ovarian, in the test with OVCAR-8 ovarian and in the test on SF-539 CNS was over 100 µM each time.
Regarding `CC(=O)N1CCN(c2ccc(OCC3COC(Cn4ccnc4)(c4ccc(Cl)cc4Cl)O3)cc2)CC1` (stereo not given), the TGI in the test on HCC-2998 colon, in the test on HOP-92 NSCLC, with K-562 leukemia, with MALME-3M melanoma, with OVCAR-4 ovarian and in the test on OVCAR-5 ovarian was over 100 µM in each case. Further, the TGI with OVCAR-8 ovarian is over 100 µM.
Take `CC1=C(C#N)C(=O)CC(c2ccc(Cl)cc2)N(C)N1` (stereo not given): the TGI with HCC-2998 colon, with HOP-92 NSCLC, with MALME-3M melanoma, in the test on OVCAR-4 ovarian and in the test with OVCAR-5 ovarian was over 100 µM in each case.
With `CCOC(=O)NC(=O)c1cn(C2CCCCC2)c(=O)[nH]c1=O`, the TGI with EKVX NSCLC, in the test with HCC-2998 colon, with HOP-92 NSCLC, in the test with K-562 leukemia, with MALME-3M melanoma and in the test on OVCAR-4 ovarian was over 100 µM each time. Further, the TGI with OVCAR-5 ovarian, with OVCAR-8 ovarian and in the test with SF-539 CNS was over 100 µM in each case.
For `Nc1nc(-c2ccc(Cl)c([N+](=O)[O-])c2)cs1`, the TGI was over 100 µM in the test with EKVX NSCLC; over 100 µM with HCC-2998 colon; 74.6 µM with HOP-92 NSCLC; over 100 µM in the test with K-562 leukemia; over 100 µM in the test with MALME-3M melanoma; over 100 µM with OVCAR-4 ovarian. Moreover, the TGI with OVCAR-5 ovarian, with OVCAR-8 ovarian and in the test with SF-539 CNS was over 100 µM throughout.
Consider `CCOP(=O)(OCC)C(C(=O)OC)C(=O)C(=O)Nc1ccc(Cl)cc1Cl` (stereo not given), for which the TGI in the test on EKVX NSCLC, with HCC-2998 colon, in the test with HOP-92 NSCLC, in the test with K-562 leukemia, with MALME-3M melanoma and in the test with OVCAR-4 ovarian was over 100 µM in each case. Moreover, the TGI in the test with OVCAR-5 ovarian, in the test on OVCAR-8 ovarian and in the test with SF-539 CNS was over 100 µM each time.

For the origin of these results see PubChem BioAssay (NCI).
